{"source": "patent US20250041461A1", "about": "“[177LU] LUTETIUM-PSMA I&T COMPOSITION AND DOSIMETRY, KIT, METHOD OF MAKING, AND METHOD OF USING THEREOF” (Curium US LLC, priority 2023, published 2025)", "origin": "cited, not measured here", "conditions": "cited from earlier work", "note": "Read-outs that look alike come from different tables or passages of the source.", "data": [{"compound": "O=C([O-])CC[C@H](NC(=O)N[C@@H](CCCCNC(=O)CCCCCCC(=O)NCCCC[C@@H](NC(=O)[C@@H](Cc1ccccc1)NC(=O)[C@@H](Cc1ccc(O)c(I)c1)NC(=O)CC[C@H](C(=O)[O-])N1CCN(CC(=O)[O-])CCN(CC(=O)[O-])CCN(CC(=O)[O-])CC1)C(=O)[O-])C(=O)[O-])C(=O)[O-].[177Lu+3].[H+].[H+].[H+].[H+].[H+]", "note": "[^177Lu-PSMA I&T, (3S,7S,26R,29R,32R,37R)-29-benzyl-32-(4-hydroxy-3-iodobenzyl)-5,13,20,28,31,34-hexaoxo-37-(4,7,10-tris(carboxymethyl)-1,4,7,10-tetraazacyclododecan-1-yl)-4,6,12,21,27,30,33-heptaazaheptatriacontane-1,3,7,26,37-pentacarboxylic acid; lutetium-177 (III)]", "values": [{"measurement": "Effective Dose, Whole body, Range", "setting": "Overall (n = 34)", "result": "0.02-0.11 Sv/GBq"}, {"measurement": "Absorbed Dose for Tumor Lesions, Lung metastases, Mean ± SD", "setting": "Overall, n 3", "result": "1.75 ± 0.92", "unit": "Gy/GBq"}, {"measurement": "Absorbed Dose for Tumor Lesions, Lung metastases, Range", "setting": "Overall, n 3", "result": "0.94-2.68 Gy/GBq"}, {"measurement": "Absorbed Dose for Tumor Lesions, Liver metastases, Mean ± SD", "setting": "Overall, n 8", "result": "1.2 ± 0.67", "unit": "Gy/GBq"}, {"measurement": "Absorbed Dose for Tumor Lesions, Liver metastases, Range", "setting": "Overall, n 8", "result": "0.47-2.59 Gy/GBq"}, {"measurement": "Absorbed Dose for Tumor Lesions, Lymph node metastases, Mean ± SD", "setting": "Overall, n 8", "result": "3.2 ± 2.2", "unit": "Gy/GBq"}, {"measurement": "Absorbed Dose for Tumor Lesions, Lymph node metastases, Range", "setting": "Overall, n 8", "result": "1.63-8.46 Gy/GBq"}, {"measurement": "Absorbed Dose for Tumor Lesions, Bone metastases, Mean ± SD", "setting": "Overall, n 74", "result": "3.4 ± 2.7", "unit": "Gy/GBq"}, {"measurement": "Absorbed Dose for Tumor Lesions, Bone metastases, Range", "setting": "Overall, n 74", "result": "0.22-12.03 Gy/GBq"}, {"measurement": "Absorbed Dose for Tumor Lesions, All metastases, Mean ± SD", "setting": "Overall, n 93", "result": "3.2 ± 2.6", "unit": "Gy/GBq"}, {"measurement": "Absorbed Dose for Tumor Lesions, All metastases, Range", "setting": "Overall, n 93", "result": "0.22-12.03 Gy/GBq"}, {"measurement": "Absorbed Dose for Tumor Lesions, Lung metastases, Mean ± SD", "setting": "Second cycle, n 1", "result": 1.3, "unit": "Gy/GBq"}, {"measurement": "Absorbed Dose for Tumor Lesions, Liver metastases, Mean ± SD", "setting": "Second cycle, n 2", "result": 0.94, "unit": "Gy/GBq"}, {"measurement": "Absorbed Dose for Tumor Lesions, Liver metastases, Range", "setting": "Second cycle, n 2", "result": "0.70-1.17 Gy/GBq"}, {"measurement": "Absorbed Dose for Tumor Lesions, Lymph node metastases, Mean ± SD", "setting": "Second cycle, n 2", "result": 5.2, "unit": "Gy/GBq"}, {"measurement": "Absorbed Dose for Tumor Lesions, Lymph node metastases, Range", "setting": "Second cycle, n 2", "result": "1.98-8.46 Gy/GBq"}, {"measurement": "Absorbed Dose for Tumor Lesions, Bone metastases, Mean ± SD", "setting": "Second cycle, n 21", "result": "3.4 ± 2.4", "unit": "Gy/GBq"}, {"measurement": "Absorbed Dose for Tumor Lesions, Bone metastases, Range", "setting": "Second cycle, n 21", "result": "1.03-9.59 Gy/GBq"}, {"measurement": "Absorbed Dose for Tumor Lesions, All metastases, Mean ± SD", "setting": "Second cycle, n 26", "result": "3.3 ± 2.5", "unit": "Gy/GBq"}, {"measurement": "Absorbed Dose for Tumor Lesions, All metastases, Range", "setting": "Second cycle, n 26", "result": "0.70-8.46 Gy/GBq"}, {"measurement": "Absorbed Dose, Kidneys, Mean ± SD", "setting": "Second cycle", "result": "0.75 ± 0.19", "unit": "Gy/GBq"}, {"measurement": "Absorbed Dose, Kidneys, Range", "setting": "Second cycle", "result": "0.44-1.01 Gy/GBq"}, {"measurement": "Absorbed Dose, Lacrimal glands, Mean ± SD", "setting": "Second cycle", "result": "4.1 ± 1.1", "unit": "Gy/GBq"}, {"measurement": "Absorbed Dose, Lacrimal glands, Range", "setting": "Second cycle", "result": "2.44-5.56 Gy/GBq"}, {"measurement": "Absorbed Dose, Liver, Mean ± SD", "setting": "Second cycle", "result": "0.13 ± 0.05", "unit": "Gy/GBq"}, {"measurement": "Absorbed Dose, Liver, Range", "setting": "Second cycle", "result": "0.08-0.21 Gy/GBq"}, {"measurement": "Absorbed Dose, Parotid glands, Mean ± SD", "setting": "Second cycle", "result": 0.59, "unit": "Gy/GBq"}, {"measurement": "Absorbed Dose, Parotid glands, Range", "setting": "Second cycle", "result": "0.47-0.80 Gy/GBq"}, {"measurement": "Absorbed Dose, Submandibular glands, Mean ± SD", "setting": "Second cycle", "result": "0.71 ± 0.42", "unit": "Gy/GBq"}, {"measurement": "Absorbed Dose, Submandibular glands, Range", "setting": "Second cycle", "result": "0.40-1.70 Gy/GBq"}, {"measurement": "Effective Dose, Whole body, Mean ± SD", "setting": "Second cycle", "result": 0.06, "unit": "Sv/GBq"}, {"measurement": "Effective Dose, Whole body, Range", "setting": "Second cycle", "result": "0.03-0.11 Sv/GBq"}, {"measurement": "Absorbed Dose for Tumor Lesions, Lung metastases, Mean ± SD", "setting": "Third cycle, n 1", "result": 0.94, "unit": "Gy/GBq"}, {"measurement": "Absorbed Dose for Tumor Lesions, Lymph node metastases, Mean ± SD", "setting": "Third cycle, n 1", "result": 2.6, "unit": "Gy/GBq"}, {"measurement": "Absorbed Dose for Tumor Lesions, Lymph node metastases, Range", "setting": "Third cycle, n 1", "result": 18.87, "unit": "Gy/GBq"}, {"measurement": "Absorbed Dose for Tumor Lesions, Liver metastases, Mean ± SD", "setting": "Third cycle, n 2", "result": 0.95, "unit": "Gy/GBq"}, {"measurement": "Absorbed Dose for Tumor Lesions, Liver metastases, Range", "setting": "Third cycle, n 2", "result": "0.47-1.42 Gy/GBq"}, {"measurement": "Absorbed Dose for Tumor Lesions, Bone metastases, Mean ± SD", "setting": "Third cycle, n 10", "result": "3.2 ± 2.5", "unit": "Gy/GBq"}, {"measurement": "Absorbed Dose for Tumor Lesions, Bone metastases, Range", "setting": "Third cycle, n 10", "result": "1.11-7.99 Gy/GBq"}, {"measurement": "Absorbed Dose for Tumor Lesions, All metastases, Mean ± SD", "setting": "Third cycle, n 14", "result": "2.7 ± 2.3", "unit": "Gy/GBq"}, {"measurement": "Absorbed Dose for Tumor Lesions, All metastases, Range", "setting": "Third cycle, n 14", "result": "0.94-7.99 Gy/GBq"}, {"measurement": "Absorbed Dose, Kidneys, Mean ± SD", "setting": "Third cycle", "result": "0.73 ± 0.22", "unit": "Gy/GBq"}, {"measurement": "Absorbed Dose, Kidneys, Range", "setting": "Third cycle", "result": "0.42-0.93 Gy/GBq"}, {"measurement": "Absorbed Dose, Lacrimal glands, Mean ± SD", "setting": "Third cycle", "result": "3.5 ± 1.4", "unit": "Gy/GBq"}, {"measurement": "Absorbed Dose, Lacrimal glands, Range", "setting": "Third cycle", "result": "2.41-5.04 Gy/GBq"}, {"measurement": "Absorbed Dose, Liver, Mean ± SD", "setting": "Third cycle", "result": "0.12 ± 0.06", "unit": "Gy/GBq"}, {"measurement": "Absorbed Dose, Liver, Range", "setting": "Third cycle", "result": "0.07-0.21 Gy/GBq"}, {"measurement": "Absorbed Dose, Parotid glands, Mean ± SD", "setting": "Third cycle", "result": 0.49, "unit": "Gy/GBq"}, {"measurement": "Absorbed Dose, Parotid glands, Range", "setting": "Third cycle", "result": "0.32-0.64 Gy/GBq"}, {"measurement": "Absorbed Dose, Submandibular glands, Mean ± SD", "setting": "Third cycle", "result": "0.83 ± 0.59", "unit": "Gy/GBq"}, {"measurement": "Absorbed Dose, Submandibular glands, Range", "setting": "Third cycle", "result": "0.33-1.68 Gy/GBq"}, {"measurement": "Effective Dose, Whole body, Mean ± SD", "setting": "Third cycle", "result": 0.06, "unit": "Sv/GBq"}, {"measurement": "Effective Dose, Whole body, Range", "setting": "Third cycle", "result": "0.03-0.10 Sv/GBq"}, {"measurement": "mean whole-body effective dose", "setting": "all cycles", "result": "0.41±0.18", "unit": "Sv"}, {"measurement": "mean whole-body effective dose per GBq", "setting": "all cycles", "result": 0.06, "unit": "Sv/GBq"}]}]}
